Values belong to the molecule of their own block, whether it stands above or below them.
Assays:
[1] = target: T1, CRBN (Homo sapiens, UniProt Q96SW2); details: in vitro; cited from earlier work
[2] = target: T2, CRBN^WT (Homo sapiens, UniProt Q96SW2); assay: Thalidomide analog-coupled affinity bead assay, DF15R CRBN^WT cell extracts; type: binding; details: preincubation of cell extracts with free compound
T2 construct: re-express full length wild type (CRBN^WT), W386A (CRBN^W386A) or W400A (CRBN^W400A) mutant versions of CRBN; FLAG; expressed in transfected cells; host or cells: DF15R (CRBN-deficient myeloma line), lentiviral transduction, puromycin selection; cell extract
Protocol: (§1) DF15, DF15R or DF15R derived cell line extracts were prepared in NP 40 lysis buffer (0.5% NP40, 50 mM Tris HCl (pH 8.0), 150 mM NaCl, 0.5 mM DTT, 0.25 mM PMSF, 1× protease inhibitor mix (Roche, Indianapolis, Ind.) at approximately 2×10^8 cells per ml […]. Cell debris and nucleic acids were cleared by centrifugation (14,000 rpm 30 min 4° C.). In competition experiments 0.5 ml (3-5 mg protein) aliquots of the resulting extracts were preincubated (15 min room temp.) with 5 μl DMSO (control) or 5 μl compound at varying concentrations in DMSO. Thalidomide analog-coupled beads (0.3-0.5 mg) were added to protein extracts and samples rotated (2 hours, 4° C.). Beads were washed three times with 0.5 ml NP40 buffer, and then bound proteins were eluted with SDS-PAGE sample buffer.

[3] = mice and rats; cited from earlier work
[4] = target: T3, CRBN^E377V (Homo sapiens, UniProt Q96SW2, E377V); assay: Thalidomide analog-coupled affinity bead assay, DF15R CRBN^E377V cell extracts; type: binding; details: preincubation of cell extracts with free compound, comparable to CRBN^WT
T3 construct: Cell lines re-expressing RFP or full length CRBN wild type or E377V mutant; expressed in transfected cells; host or cells: DF15R (CRBN-deficient myeloma line), lentiviral system; cell extract
Protocol: as §1
To probe the function of the residues proximal to the bound IMiD® drug, we performed mutagenesis of residue E377 to valine in the human CRBN sequence and re-expressed the protein using a lentiviral system in DF15R cells. Cell extracts from this line were used to assay the ability of CRBN^E377V to bind IMiD® compound.

[5] = tested on: panel of tumor cell lines; assay: Potency across a panel of tumor cell lines; type: cell-based
Protocol: The potency of CC-885 was assessed across a panel of tumor cell lines, including B-lymphoma, breast, CNS, colon, kidney, leukemia, lung, melanoma, multiple myeloma, ovary and prostate.

[6] = target: T1, CRBN; assay: Thalidomide analog affinity bead competition, U266 cell extracts; type: binding; set-up: extracts prepared from U266 multiple myeloma cells; endogenous in cells; host or cells: U266 multiple myeloma cells (cell extract); details: U266 MM cell extracts, competition with thalidomide analog affinity beads
Protocol: Immunoblot analysis of extracts prepared from U266 multiple myeloma cells and pre-incubated with vehicle DMSO (D), Pomalidomide (Pom) or CC-885 at the indicated concentrations, and bound to thalidomide analog affinity beads, washed and eluted with SDS buffer as previously described (Ito et al, 2010; Lopez-Girona et al, 2012). Samples were subjected to SDS-PAGE and immunoblot analysis using anti-CRBN 65-76 (1:10,000 dilution; Red signal) and anti-DDB1 (Cell Signaling) (1:2,000 dilution; Green signal). A LI-COR Odissey system was used to quantify CRBN band density and relative amounts of CRBN were determined by averaging at least three DMSO controls and expressing CRBN in each competition sample as percent inhibition of CRBN protein relative to the averaged controls as 100% binding. […] Cell proliferation assay of DF15 (sensitive), DF15R (resistant; CRBNnull) cells treated with a dose response of CC-885. Assays were done in triplicate and error bars represent s.d. Data for each cell line was normalized to treatment with vehicle (DMSO). […] Cell proliferation assay of DF15 (sensitive), DF15R (resistant; CRBNnull), DF15R-hCRBNWT (human CRBN), DF15R-RFP cells treated with a dose response of CC-885. […] Assays were done in triplicate and error bars represent s.d. Data for each cell line was normalized to treatment with vehicle (DMSO). […]

[7] = tested on: TMD8 (ABC) or Karpas 422 (GCB) cells; assay: 3H-thymidine incorporation proliferation assay, co-treatment with lenalidomide; type: cell-based; details: for anti-proliferative effects on co-treatment with lenalidomide: co-treatment with 10 μM lenalidomide
[8] = tested on: DF15 (sensitive), DF15R (resistant; CRBNnull) cells; assay: Cell proliferation assay of DF15, DF15R and DF15R-derived cells with CC-885; type: cell-based
[9] = tested on: H929; assay: Apoptosis in multiple myeloma cell line H929; type: cell-based; details: 0.01 nM to 1000 nM, assessed at 24 hrs
Protocol: The multiple myeloma cell line, H929, was cultured and treated with CC-885 or other CMA analogs at various concentrations from 0.01 nM to 1000 nM. Apoptosis was assessed at 24 hrs. later.

[10] = tested on: MDA-MB-231; assay: Growth inhibition and pro-apoptotic activity in breast cancer cells treated with CRBN siRNA; type: cell-based; details: CRBN siRNA vs negative control
Protocol: Breast cancer cells (MDA-MB-231) were treated with CRBN siRNA or a negative control. CC-885 was added at a concentration between 0 to 100 μM, and CRBN levels were assessed at 48 hours post treatment.

[11] = tested on: DF15R cells; assay: Cell proliferation assay of DF15R cells re-expressing CRBN wild type or mutants; type: cell-based
[12] = tested on: H929 and U266; assay: Cell viability in CRBN inducible shRNA knockdown myeloma cells; type: cell-based; details: CRBN inducible knockdown vs shControl, 5 day treatment
Source text: FIG. 25A: An inducible shRNA construct targeting CRBN or a control construct was transduced into the multiple myeloma cell lines H929 and U266. Inducible shRNA expression (marked by turbo-RFP) was monitored by flow cytometry over a period of 1 to 9 days as indicated in the histograms (Top row). […] FIG. 25B: CRBN protein expression was quantified by Western blotting. […] Data are shown as mean of three independent experiments±s.d.
Inducible shRNA constructs targeting CRBN or a control construct (Open Biosystems) were transduced using spinoculation methodology into the multiple myeloma cell lines H929 and U266. Stably transduced cells were selected with puromycin. Inducible shRNA expression (marked by RFP) was monitored by fluorescence microscopy and flow cytometry using 1 μg/mL doxycycline. CRBN protein expression was quantified by Western blotting. Cell proliferation and viability were assessed by 7AAD/flow cytometry assays. 6.9.2.5 Immunoblot and Immunohistochemistry

[13] = tested on: IL-2; assay: IL-2 induction in mouse splenocytes; type: cell-based
Source text: FIGS. 26A-26B show IL2 costimulation by pomalidomide. FIG. 26A: Co-stimulation of IL2 release by pomalidomide in human PBMCs treated with anti-CD3. Data are shown as mean±s.d. FIG. 26B: Costimulation of IL2 release by anti-CD28 (squares) or pomalidomide (circles) in mouse PBMC treated with anti-CD3. Data are shown as mean±s.d.

Compound: Cc1nc2cccc(N)c2c(=O)n1C1CCC(=O)NC1=O (stereo not shown) [Compound A, 3-(5-amino-2-methyl-4-oxo-4H-quinazolin-3-yl)-piperidine-2,6-dione]
- anti-proliferative effects on co-treatment with lenalidomide [7]: blocks anti-proliferative effects

Compound: Nc1cccc2c1CN(C1CCC(=O)NC1=O)C2=O (stereo not shown) [lenalidomide, 3-(4-amino-1-oxo-1,3-dihydro-isoindol-2-yl)-piperidine-2,6-dione]
- competition for CRBN ([7]; against Compound A and CC-885): competes
- teratogenic effects [3]: insensitive

Further lines, with some results ahead:

- competition for CRBN binding to thalidomide analog-beads [2]: competed for binding to the beads
- competition for CRBN^E377V binding to thalidomide analog-beads [4]: competed
Compound: O=C1CCC(N2C(=O)c3ccccc3C2=O)C(=O)N1 (racemic) [thalidomide]
- auto-ubiquitination of CRBN [1]: able to inhibit
- teratogenic effects [3]: insensitive

- binding to CRBN protein [6]: binds
Compound: Cc1ccc(NC(=O)NCc2ccc3c(c2)CN(C2CCC(=O)NC2=O)C3=O)cc1Cl (stereo not shown) [CC-885, 1-(3-chloro-4-methylphenyl)-3-((2-(2,6-dioxopiperidin-3-yl)-1-oxoisoindolin-5-yl)methyl)urea]
- potency across tumor cell line panel ([5]; B-lymphoma, breast, CNS, colon, kidney, leukemia, lung, melanoma, multiple myeloma, ovary and prostate): potent
- Therapeutic Index ([5]; toxic effects at low doses): low
- anti-proliferative effects on co-treatment with lenalidomide [7]: blocks anti-proliferative effects
- anti-proliferative activity after re-expression of human CRBN ([8]; DF15R-hCRBNWT): recues CC-885 anti-proliferative activity
- anti-proliferative activity, dependence on CRBN ([8]; DF15 vs DF15R (CRBNnull)): CRBN is required
- early apoptosis [9]: induced early apoptosis
- growth inhibition, dependence on CRBN [10]: CRBN is required
- pro-apoptotic activity, dependence on CRBN [10]: CRBN is required

- competition for CRBN binding to thalidomide analog-beads [2]: competed for binding to the beads
- competition for CRBN^E377V binding to thalidomide analog-beads [4]: competed
Compound: Nc1cccc2c1C(=O)N(C1CCC(=O)NC1=O)C2=O (stereo not shown) [pomalidomide]
- sensitivity to antiproliferative effect ([11]; DF15R re-expressing CRBN^E377V): unable to rescue sensitivity
- antiproliferative effect ([11]; DF15R re-expressing CRBN^WT): regained antiproliferative effect
- anti-proliferative effects [12]: reduced anti-proliferative effects
- IL-2 inducing effects [13]: resistant

From patent publication US10668057B2, “Compositions and methods for inducing conformational changes in cereblon and other E3 ubiquitin ligases” (Celgene Corporation, priority 2014, dated 2020)
